Laboratory results taken from the NIST ThermoML archive (doi:10.1021/je300762m).
Values joined by “and” are separate entries in the source; they are usually repeats but may differ in a detail not shown here. Equal entries are not always repeated.

Key:
[1] = molar heat capacity at constant pressure; details: Liquid, Large sample (1 g) DSC
[2] = molar heat capacity at constant pressure; xn = mol fraction of the nth substance listed; details: 100 kPa, Liquid, Large sample (1 g) DSC, x1 = 0.38

CC [ethane]
[1]
Details	molar heat capacity at constant pressure [J/K/mol]
108.15 K, 1050 kPa	67.9
108.15 K, 2020 kPa	67.87
108.15 K, 4290 kPa	67.78
118.15 K, 1060 kPa	68.26
118.15 K, 2030 kPa	67.63
118.15 K, 4290 kPa	68.95
128.15 K, 4310 kPa	68.65
143.15 K, 4080 kPa	68.62
153.15 K, 4070 kPa	69.94
163.15 K, 4050 kPa	70.84
188.15 K, 1120 kPa	73.46
188.15 K, 4310 kPa	72.41
228.15 K, 1170 kPa	81.04
228.15 K, 4320 kPa	80.07
238.15 K, 1210 kPa	83.71
238.15 K, 4330 kPa	82.72

CCCCCCC [heptane]
[1], 100 kPa
Details	molar heat capacity at constant pressure
228.15 K	202.31 J/K/mol and 201.51 J/K/mol
238.15 K	206.22 J/K/mol and 205.11 J/K/mol
303.15 K	225.96 J/K/mol and 225.25 J/K/mol
313.15 K	229.16 J/K/mol and 230.87 J/K/mol

C [methane]
[1]
Details	molar heat capacity at constant pressure [J/K/mol]
108.15 K, 4230 kPa	54.4
108.15 K, 6300 kPa	54.11
118.15 K, 4270 kPa	55.54
118.15 K, 6350 kPa	55.11
128.15 K, 4330 kPa	57.03
128.15 K, 6400 kPa	56.66
143.15 K, 4350 kPa	59.37
153.15 K, 4340 kPa	63.24
153.15 K, 6340 kPa	60.98
163.15 K, 4390 kPa	67.7
163.15 K, 6470 kPa	64.51
173.15 K, 4380 kPa	77.87
173.15 K, 6450 kPa	70.97

CCC [propane]
[1]
Details	molar heat capacity at constant pressure [J/K/mol]
108.15 K, 1160 kPa	84.97
108.15 K, 3680 kPa	86.69
108.15 K, 5160 kPa	86.65
108.15 K, 5330 kPa	84.8
118.15 K, 1170 kPa	84.75
118.15 K, 3650 kPa	87.09
118.15 K, 5180 kPa	87.04
118.15 K, 5430 kPa	85.46
128.15 K, 1180 kPa	85.28
128.15 K, 3640 kPa	86.65
128.15 K, 3670 kPa	86.3
128.15 K, 5190 kPa	86.56
128.15 K, 5430 kPa	85.55
143.15 K, 1130 kPa	86.43
143.15 K, 3690 kPa	86.69
143.15 K, 5180 kPa	86.56
153.15 K, 1190 kPa	87.62
153.15 K, 5200 kPa	88.68
163.15 K, 1170 kPa	87.97
163.15 K, 5210 kPa	89.34
188.15 K, 1190 kPa	91.15
188.15 K, 5220 kPa	91.1
228.15 K, 1150 kPa	98.73
228.15 K, 3670 kPa	98.42
228.15 K, 5220 kPa	98.11
238.15 K, 1110 kPa	101.24
238.15 K, 3680 kPa	100.71
238.15 K, 5220 kPa	100.63
248.15 K, 1160 kPa	103.58
248.15 K, 3670 kPa	102.17
248.15 K, 5190 kPa	101.46
258.15 K, 1160 kPa	105.65
258.15 K, 3680 kPa	104.11
258.15 K, 5220 kPa	103.76

Cc1ccccc1 [toluene]
[1], 100 kPa
Details	molar heat capacity at constant pressure
228.15 K	138.39 J/K/mol and 139.13 J/K/mol
238.15 K	140.79 J/K/mol and 140.97 J/K/mol
303.15 K	159.03 J/K/mol and 157.65 J/K/mol
313.15 K	162.35 J/K/mol and 161.98 J/K/mol

Cc1ccccc1 [toluene] + CCCCCCC
[2]
Details	molar heat capacity at constant pressure [J/K/mol]
228.15 K	166.3
238.15 K	168.05
303.15 K	185.24
313.15 K	189.52
